Assay results from patent US5422349A, “Morpholino-oxazinyl-terminated alkylamino ethynyl alanine amino diol compounds for treatment of hypertension” (G. D. Seale & Co., priority 1992, dated 1995).
Non-standard residues stand in square brackets, D forms with d. Residues, ends and D or L forms follow the SMILES beside them. *: point of attachment. Sta = CC(C)C[C@H](N)[C@@H](O)CC(=O)O; Isovaleryl = CC(C)CC(=O)*

Key:
[1] = target: T1, human renin (Homo sapiens, UniProt P00797); assay: Human Renin Inhibition in vitro (angiotensin I produced, by radioimmunoassay); assay type: biochemical; conditions: pH 7.4, 37° C., two hours, human plasma
T1 construct: purchased National Institute for Biological Standards, London
T1 sequence (P00797 67-406): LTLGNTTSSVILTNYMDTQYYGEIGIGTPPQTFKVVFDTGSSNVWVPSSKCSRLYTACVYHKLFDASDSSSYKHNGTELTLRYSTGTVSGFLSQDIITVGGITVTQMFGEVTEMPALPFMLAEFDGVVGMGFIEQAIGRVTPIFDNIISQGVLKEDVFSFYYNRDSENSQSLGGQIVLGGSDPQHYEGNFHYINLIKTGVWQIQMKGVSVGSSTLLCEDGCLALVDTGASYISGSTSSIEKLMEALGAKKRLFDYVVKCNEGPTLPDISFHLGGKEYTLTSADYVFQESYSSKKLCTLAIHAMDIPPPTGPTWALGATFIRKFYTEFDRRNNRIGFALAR
Experimental: Compounds of Formula I were evaluated as inhibitors of human renin in an in Vitro assay, as follows: This human renin inhibition test has been previously described in detail [Papaioannou et al., Clinical and Experimental Hypertension, A7(9), 1243-1257 (1985)]. Human renin was obtained from the National Institute for Biological Standards, London. An incubation mixture was prepared containing the following components: in a total volume of 0.25 mL: 100 mM Tris-acetate buffer at pH 7.4, 25×10^-6 Goldblatt units of renin, 0.05 mL of plasma from human volunteers taking oral contraceptives, 6.0 mM Na-EDTA, 2.4 mM phenylmethyl sulfonyl fluoride, 1.5 mM 8-hydroxyquinoline, 0.4 mg/mL bovine serum albumin (BSA), and 0.024 mg/mL neomycin sulfate. This mixture was incubated for two hours at 37° C. in the presence or absence of renin inhibitors. The produced angiotensin I was determined by radioimmunoassay (New England Nuclear kit). Test compounds to be assayed were dissolved in DMSO and diluted with 100 mM Tris-acetate buffer at pH 7.4 containing 0.5% BSA to the appropriate concentration. The final concentration of organic solvent in the reaction mixture was less than 1%. Control incubations at 37° C. were used to correct for effects of organic solvent on renin activity.

[2] = tested on: pepsin; conditions: cited from earlier work
[3] = tested on: hog renin; conditions: after injection of hog renin into nephrectomized rats; cited from earlier work
[4] = tested on: renin; conditions: cited from earlier work
[5] = tested on: cathepsin D; conditions: cited from earlier work

C#CC[C@H](NC(=O)[C@@H](CC(=O)N(C)CCN1CCOCC1)Cc1ccccc1)C(=O)N[C@@H](CC1CCCCC1)[C@@H](O)[C@@H](O)CC(C)C [Example 1, N^1-[1R*-[[[1S,1R*-(cyclohexylmethyl)-2S*,3R* -dihydroxy-5-methylhexyl]amino]carbonyl]-3-butynyl]-N^4-methyl-N^4-[2-(4-morpholinyl)ethyl]-2S*-(phenylmethyl)butanediamide]
IC50 [1]: 1 nM

CC(C)CC(=O)N[C@H](C(=O)N[C@H](C(=O)N[C@@H](CC(C)C)[C@@H](O)CC(=O)N[C@@H](C)C(=O)N[C@@H](CC(C)C)[C@@H](O)CC(=O)O)C(C)C)C(C)C [pepstatin] (Isovaleryl-VV[Sta]A[Sta]-OH)
inhibitor of pepsin [2]: inhibitor | blood pressure [3]: reduce blood pressure in vivo | inhibitor of renin [4]: inhibitor | inhibitor of cathepsin D [5]: inhibitor
